# From patent publication US8168801B2, “Imidazolium-type ionic oligomers” (The Royal Institution for the Advancement of …, priority 2007, dated 2012)
# Where a name gives a salt, the structure may show the parent alone.
# Tests used:
# [1] = Moisture affinity (absorption of moisture from the atmosphere); assay type: physicochemical
# [2] = Thermal stability by thermogravimetric analysis (TGA); assay type: physicochemical; details: 25° C. to 550° C. at 20° C./min under nitrogen, then air to 700° C., platinum pan
# Method: The thermal stability of the imidazolium-type ionic oligomers was measured by thermogravimetric analysis (TGA).^42 The onset decomposing temperatures (ODTs) and residue percentages (RPs) are summarized hereinbelow in Table 1.
# General: All reagents were commercially obtained from Aldrich Chemical Co. and were used without further purification unless otherwise noted. Solvents were of reagent grade and, if necessary, were dried by standard procedures. ^1H NMR, ^13C NMR and COSY NMR spectra were acquired using Varian Mercury 300 MHz, 400 MHz and Unity 500 MHz spectrometers respectively, equipped with Sun workstations. The proton chemical shifts were reported in parts per million on the δ scale, referenced to the residual proton resonance in CDCl3 (δ 7.24 ppm) or D2O (δ 4.67 ppm). The carbon chemical shifts were reported in parts per million on the δ scale, internally referenced to the solvent resonance in CDCl3 (δ 77.0 ppm). The proton and carbon assignments were made by standard gCOSY experiments. Melting points were taken using a standard melting point apparatus without correcting the thermometer. High resolution mass spectrometric analyses were performed on a VG Micromass ZAB 2F HS (FAB) or a Microm as Quattro II triple quadrupole mass spectrometer (Manchester, UK) equipped with an electrospray ionization source (ESI). Typically only the ion corresponding to the cation (C) component was analyzed. Thermogravimetric analysis (TGA) measurements were performed on a TGA Q500 from TA instruments. The running method used was ramped from 25° C. to 550° C., 20° C./min, under nitrogen, switching to air and then ramped at 20° C./min to 700° C. The type of pan used was platinum. High-pressure liquid chromatography (HPLC) analyses were performed using a reverse phase C18 column (Agilent Zorbax Extend-C18). The elution was performed using a linear gradient from 50% to 100% of B in A over 20 min, followed by a linear gradient elution from 100% to 50% of B in A over 10 min, where A is H2O/0.05% TFA (v/v) and B is CH3CN/0.05% TFA (v/v), at a flow rate of 0.8 mL/min. The eluted compounds were detected by UV absorbance at 210 nm. […]
melting point,Onset decomposing temperature (ODT) [2],Residue percentage (RP) [2],Structure (SMILES),Absorption of moisture from the atmosphere [1]
201 to 203 °C,,,Cc1n(C)cc[n+]1CCCn1cc[n+](CCCBr)c1C (as salt: bromide) [Compound 9],
107 to 109 °C,326.2 °C,1.76%,Cc1nccn1CCC[n+]1ccn(CCC[n+]2ccn(C)c2C)c1C [Compound 11],did substantially not absorb moisture
120 to 122 °C,,,Cc1nccn1CCC[n+]1ccn(C)c1C (as salt: triflate) [Compound 4],
121 to 123 °C,329.6 °C,1.38%,Cc1nccn1CCC[n+]1ccn(CCC[n+]2ccn(C)c2C)c1C [Compound 6],did substantially not absorb moisture
76 to 78 °C,,,Cc1n(C)cc[n+]1CCCn1cc[n+](CCCBr)c1C (as salt: triflate) [Compound 5],
,80.6 °C,0.18%,"Cc1nccn1C [Compound 1, 1,2-dimethylimidazole, reference compound]",
96 to 98 °C,,,Cc1n(C)cc[n+]1CCCBr (as salt: bromide) [Compound 2],
159 to 161 °C,,,Cc1nccn1CCC[n+]1ccn(C)c1C (as salt: bromide) [Compound 3],
,215.8 °C,0.10%,Cc1n(C)cc[n+]1CCCBr [Compound 2],
,239.4 °C,0.59%,Cc1n(C)cc[n+]1CCCn1cc[n+](CCCBr)c1C [Compound 5],
84 to 86 °C,,,Cc1n(C)cc[n+]1CCCn1cc[n+](CCCBr)c1C (as salt: triflate) [Compound 10],
,293.9 °C,1.71%,Cc1nccn1CCC[n+]1ccn(C)c1C [Compound 4],significantly slower rate than compound 2
,277.8 °C,0.50%,Cc1n(C)cc[n+]1CCCn1cc[n+](CCCBr)c1C [Compound 10],
,287.8 °C,1.53%,Cc1nccn1CCC[n+]1ccn(C)c1C [Compound 3],significantly slower rate than compound 2
,212.2 °C,1.89%,Cc1n(C)cc[n+]1CCCn1cc[n+](CCCBr)c1C [Compound 9],
